Test results published in PubChem BioAssay (NCI).
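The compound was tested at five concentrations on cells cultured in 96-well plates, with a 48-hour exposure period. TGI denotes the concentration required for complete inhibition of growth.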

How the values were obtained:
Assay in all cases: NCI-60 cell line screen, 48 h
[1] = tested on: HOP-92 NSCLC
[2] = tested on: OVCAR-5 ovarian
[3] = tested on: SK-MEL-28 melanoma
[4] = tested on: SNB-75 CNS
[5] = tested on: RPMI-8226 leukemia
[6] = tested on: UACC-257 melanoma
[7] = tested on: K-562 leukemia
[8] = tested on: IGROV1 ovarian
[9] = tested on: MDA-MB-231 breast

CC1(C)C2C=CC1C(=O)CC2 (centres undefined)
TGI [1]: > 100 µM | TGI [2]: > 100 µM | TGI [3]: > 100 µM | TGI [4]: > 100 µM | TGI [5]: > 100 µM | TGI [6]: > 100 µM | TGI [7]: > 100 µM

CN(C)CC/[N+]([O-])=C(/c1ccccc1)C12CC3CC(CC(C3)C1)C2
TGI [1]: 28.8 µM | TGI [2]: 32 µM | TGI [3]: 29.9 µM | TGI [4]: 24.7 µM | TGI [5]: 42.7 µM | TGI [6]: 29.9 µM | TGI [8]: 33.9 µM | TGI [7]: 30.8 µM

O=C(O)CCc1nn2c(nc1=O)sc1ccc3ccccc3c12
TGI [1]: > 100 µM | TGI [3]: > 100 µM | TGI [4]: > 100 µM | TGI [5]: > 100 µM | TGI [6]: > 100 µM | TGI [8]: > 100 µM | TGI [7]: > 100 µM

CC(=O)C1=C(O)CC2CC3c4[nH]c5ccccc5c4CCN3CC2C1 (centres undefined)
TGI [2]: > 100 µM | TGI [3]: > 100 µM | TGI [4]: > 100 µM | TGI [6]: > 100 µM | TGI [8]: > 100 µM | TGI [7]: > 100 µM

Cc1cccc(C)c1NC(=O)C(=O)Nn1c(NN)nc2ccccc2c1=O
TGI [1]: > 100 µM | TGI [2]: > 100 µM | TGI [3]: > 100 µM | TGI [4]: > 100 µM | TGI [5]: > 100 µM | TGI [6]: > 100 µM | TGI [8]: > 100 µM | TGI [7]: > 100 µM

N#CC1(C#N)C(C#N)(C#N)C12CCCCCC2
TGI [1]: 29.4 µM | TGI [2]: 30 µM | TGI [3]: 21.4 µM | TGI [4]: > 55.3 µM | TGI [5]: > 35.1 µM | TGI [6]: 27.4 µM | TGI [8]: > 68.8 µM | TGI [7]: > 30.3 µM

COc1ccc(C2ON(c3cccc(C)n3)CC=C2C)cc1 (centres undefined)
TGI [2]: > 100 µM | TGI [3]: 71.3 µM | TGI [4]: > 100 µM | TGI [5]: > 100 µM | TGI [6]: > 100 µM | TGI [8]: > 100 µM | TGI [7]: > 100 µM

CC(=O)OCc1cc2ccccc2nc1C(Br)(Br)Br
TGI [1]: 31.2 µM | TGI [2]: 30.7 µM | TGI [3]: 42.6 µM | TGI [4]: 39.9 µM | TGI [9]: 44.9 µM | TGI [6]: 27 µM | TGI [8]: 25.7 µM | TGI [7]: 45.4 µM

NC(N)=NS(=O)(=O)c1ccc(Nc2c3ccccc3nc3c(C(=O)Nc4ccc(S(N)(=O)=O)cc4)cccc23)cc1
TGI [1]: > 100 µM | TGI [2]: > 100 µM | TGI [3]: > 100 µM | TGI [4]: > 100 µM | TGI [5]: > 100 µM | TGI [6]: > 100 µM | TGI [8]: > 100 µM | TGI [7]: > 100 µM

C=CCC1C(=O)CC2(C)CC(=O)C(CC=C)C12C (centres undefined)
TGI [1]: > 100 µM | TGI [2]: > 100 µM | TGI [3]: > 100 µM | TGI [4]: > 100 µM | TGI [5]: > 100 µM | TGI [6]: > 100 µM | TGI [8]: > 100 µM | TGI [7]: > 100 µM

Cn1cc(C(=O)C[n+]2ccccc2)c2ccccc21
TGI [4]: > 100 µM | TGI [5]: > 100 µM | TGI [6]: > 100 µM | TGI [8]: > 100 µM | TGI [7]: > 100 µM

O=c1c2cc(Cl)ccc2sc2cccc(Cl)c12
TGI [1]: > 100 µM | TGI [2]: > 100 µM | TGI [3]: > 100 µM | TGI [5]: > 100 µM | TGI [6]: > 100 µM | TGI [8]: > 100 µM | TGI [7]: > 100 µM

Clc1ccc(C(n2cc(Br)cn2)n2cc(Br)cn2)cc1
TGI [1]: 30.6 µM | TGI [2]: 29.9 µM | TGI [3]: 32.6 µM | TGI [5]: 60.2 µM | TGI [6]: 29.3 µM | TGI [8]: 41.3 µM | TGI [7]: 53.6 µM

CCN(CC)c1ccc(N=Nc2ccc(-c3nc4ccc[n+](C)c4o3)cc2)cc1
TGI [1]: 33.4 µM | TGI [2]: 16.3 µM | TGI [4]: 24 µM | TGI [5]: 7.38 µM | TGI [6]: 20.2 µM | TGI [8]: 30.8 µM | TGI [7]: 12.4 µM

COc1cccc(NC(=O)/C(Cc2nc3ccccc3nc2C)=N/NC(=O)C[n+]2ccccc2)c1
TGI [2]: > 100 µM | TGI [3]: > 100 µM | TGI [4]: > 100 µM | TGI [5]: 68.1 µM | TGI [6]: > 100 µM | TGI [8]: > 100 µM | TGI [7]: > 100 µM

O=C(NC12CC3CC(CC(C3)C1)C2)C(=O)c1c[nH]c2ccccc12
TGI [1]: 28.8 µM | TGI [2]: 32.1 µM | TGI [3]: 30.3 µM | TGI [5]: 55.3 µM | TGI [6]: 25.9 µM | TGI [8]: 29.3 µM

CCOC(=O)c1[nH]c(COC(C)=O)c2c1CCCCCCCCCC2
TGI [1]: > 100 µM | TGI [2]: > 100 µM | TGI [4]: > 100 µM | TGI [5]: > 100 µM | TGI [6]: > 100 µM | TGI [8]: > 100 µM | TGI [7]: > 100 µM

COC(=O)Nc1nc2ccc(Br)cc2[nH]1
TGI [1]: > 100 µM | TGI [2]: > 100 µM | TGI [3]: > 100 µM | TGI [4]: > 100 µM | TGI [5]: > 100 µM | TGI [6]: > 100 µM | TGI [8]: > 100 µM | TGI [7]: > 100 µM

CC1OC(n2cc(F)c(=O)[nH]c2=O)C=CC1=O (centres undefined)
TGI [1]: 33.2 µM | TGI [2]: 30 µM | TGI [3]: 31.5 µM | TGI [4]: 32.5 µM | TGI [5]: 93.2 µM | TGI [6]: 32.2 µM | TGI [8]: > 100 µM | TGI [7]: > 100 µM

CN(C)c1ccc(/C=c2\sc3nc4ccccc4n3c2=O)cc1
TGI [1]: > 100 µM | TGI [2]: > 100 µM | TGI [3]: > 100 µM | TGI [4]: > 100 µM | TGI [6]: > 100 µM | TGI [8]: > 100 µM | TGI [7]: > 100 µM
